How the values were obtained:
Assay in all cases: relative viability (nuclei count vs DMSO), 5 days (fraction); higher = more cells survive
LU99A = tested on: LU99A
Method in brief: (§1)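 A single step with final 0.05% Triton X-100, 1% formaldehyde and 1 ug/ml Hoechst fixed the cells and stained nuclei 5 days after treatment. Lung cancer cell lines in 1536-well plates had been treated by pin tool the day after seeding with one drug alone or a fixed anchor-drug dose plus five library-drug doses (not always all listed) in √10 steps, and nuclei were counted on 4× images. Relative viability is the ratio of nuclei in treated wells to nuclei in vehicle wells, taken as the median of duplicate plates.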

NCI-H596 = tested on: NCI-H596
Method in brief: as §1

LCLC-103H = tested on: LCLC-103H
Method in brief: as §1

HCC-44 = tested on: HCC-44
Method in brief: as §1

PC-3 [JPC-3] = tested on: PC-3 [JPC-3]
Method in brief: as §1

201T = tested on: 201T
Method in brief: as §1

NCI-H727 = tested on: NCI-H727
Method in brief: as §1

NCI-H23 = tested on: NCI-H23
Method in brief: as §1

LCLC-97TM1 = tested on: LCLC-97TM1
Method in brief: as §1

NCI-H460 = tested on: NCI-H460
Method in brief: as §1

A-427 = tested on: A-427
Method in brief: as §1

NCI-H2228 = tested on: NCI-H2228
Method in brief: as §1

H3255 = tested on: H3255
Method in brief: as §1

LK-2 = tested on: LK-2
Method in brief: as §1

NCI-H1793 = tested on: NCI-H1793
Method in brief: as §1

NCI-H2347 = tested on: NCI-H2347
Method in brief: as §1

NCI-H1563 = tested on: NCI-H1563
Method in brief: as §1

PC-14 = tested on: PC-14
Method in brief: as §1

COR-L23 = tested on: COR-L23
Method in brief: as §1

LC-2-ad = tested on: LC-2-ad
Method in brief: as §1

SW 1573 = tested on: SW 1573
Method in brief: as §1

## O=c1cc(N2CCOCC2)oc2c(-c3cccc4c3sc3ccccc34)cccc12 + C[C@]1(O)C[C@@H](c2nc(-c3ccc4ccc(-c5ccccc5)nc4c3)c3c(N)nccn32)C1 [Linsitinib] (partner 1 µM)
LU99A; first compound 0.01 µM
  relative viability: 0.524
LU99A; first compound 0.03162 µM
  relative viability: 0.628
LU99A; first compound 0.1 µM
  relative viability: 0.589
LU99A; first compound 0.3162 µM
  relative viability: 0.518
LU99A; first compound 1 µM
  relative viability: 0.627
NCI-H596; first compound 0.01 µM
  relative viability: 1.14
NCI-H596; first compound 0.03162 µM
  relative viability: 1.02
NCI-H596; first compound 0.1 µM
  relative viability: 1.19
NCI-H596; first compound 0.3162 µM
  relative viability: 0.968
NCI-H596; first compound 1 µM
  relative viability: 0.921
LCLC-103H; first compound 0.01 µM
  relative viability: 1.09
LCLC-103H; first compound 0.03162 µM
  relative viability: 1.04
LCLC-103H; first compound 0.1 µM
  relative viability: 1.03
LCLC-103H; first compound 0.3162 µM
  relative viability: 1.08
LCLC-103H; first compound 1 µM
  relative viability: 0.978
HCC-44; first compound 0.01 µM
  relative viability: 0.748
HCC-44; first compound 0.03162 µM
  relative viability: 0.661
HCC-44; first compound 0.1 µM
  relative viability: 0.655
HCC-44; first compound 0.3162 µM
  relative viability: 0.684
HCC-44; first compound 1 µM
  relative viability: 0.584
PC-3 [JPC-3]; first compound 0.01 µM
  relative viability: 0.967
PC-3 [JPC-3]; first compound 0.03162 µM
  relative viability: 0.865
PC-3 [JPC-3]; first compound 0.1 µM
  relative viability: 0.943
PC-3 [JPC-3]; first compound 0.3162 µM
  relative viability: 0.916
PC-3 [JPC-3]; first compound 1 µM
  relative viability: 0.913
201T; first compound 0.01 µM
  relative viability: 1.04
201T; first compound 0.03162 µM
  relative viability: 1.03
201T; first compound 0.1 µM
  relative viability: 1.03
201T; first compound 0.3162 µM
  relative viability: 1.01
201T; first compound 1 µM
  relative viability: 1.05
NCI-H727; first compound 0.01 µM
  relative viability: 0.29
NCI-H727; first compound 0.03162 µM
  relative viability: 0.238
NCI-H727; first compound 0.1 µM
  relative viability: 0.243
NCI-H727; first compound 0.3162 µM
  relative viability: 0.227
NCI-H727; first compound 1 µM
  relative viability: 0.283
NCI-H23; first compound 0.01 µM
  relative viability: 0.623
NCI-H23; first compound 0.03162 µM
  relative viability: 0.641
NCI-H23; first compound 0.3162 µM
  relative viability: 0.663
NCI-H23; first compound 1 µM
  relative viability: 0.476
LCLC-97TM1; first compound 0.01 µM
  relative viability: 0.217
LCLC-97TM1; first compound 0.03162 µM
  relative viability: 0.203
LCLC-97TM1; first compound 0.3162 µM
  relative viability: 0.198
LCLC-97TM1; first compound 1 µM
  relative viability: 0.18
NCI-H460; first compound 0.01 µM
  relative viability: 0.764
NCI-H460; first compound 0.03162 µM
  relative viability: 0.708
NCI-H460; first compound 0.1 µM
  relative viability: 0.739
NCI-H460; first compound 0.3162 µM
  relative viability: 0.822
NCI-H460; first compound 1 µM
  relative viability: 0.78
A-427; first compound 0.01 µM
  relative viability: 1.13
A-427; first compound 0.03162 µM
  relative viability: 1.12
A-427; first compound 0.1 µM
  relative viability: 1.23
A-427; first compound 0.3162 µM
  relative viability: 1.12
A-427; first compound 1 µM
  relative viability: 1.11
NCI-H2228; first compound 0.03162 µM
  relative viability: 0.571
NCI-H2228; first compound 0.1 µM
  relative viability: 0.539
NCI-H2228; first compound 0.3162 µM
  relative viability: 0.904
NCI-H2228; first compound 1 µM
  relative viability: 0.74
H3255; first compound 0.01 µM
  relative viability: 1
H3255; first compound 0.03162 µM
  relative viability: 0.988
H3255; first compound 0.1 µM
  relative viability: 1.14
H3255; first compound 0.3162 µM
  relative viability: 0.95
H3255; first compound 1 µM
  relative viability: 1.09
LK-2; first compound 0.01 µM
  relative viability: 0.585
LK-2; first compound 0.03162 µM
  relative viability: 0.754
LK-2; first compound 0.1 µM
  relative viability: 0.83
LK-2; first compound 0.3162 µM
  relative viability: 0.554
LK-2; first compound 1 µM
  relative viability: 0.69
NCI-H1793; first compound 0.01 µM
  relative viability: 0.809
NCI-H1793; first compound 0.03162 µM
  relative viability: 0.872
NCI-H1793; first compound 0.1 µM
  relative viability: 0.517
NCI-H1793; first compound 0.3162 µM
  relative viability: 0.813
NCI-H1793; first compound 1 µM
  relative viability: 0.68
NCI-H2347; first compound 0.01 µM
  relative viability: 1.02
NCI-H2347; first compound 0.03162 µM
  relative viability: 0.943
NCI-H2347; first compound 0.1 µM
  relative viability: 0.962
NCI-H2347; first compound 0.3162 µM
  relative viability: 0.926
NCI-H2347; first compound 1 µM
  relative viability: 0.945
NCI-H1563; first compound 0.01 µM
  relative viability: 1.18
NCI-H1563; first compound 0.03162 µM
  relative viability: 1.21
NCI-H1563; first compound 0.1 µM
  relative viability: 1.19
NCI-H1563; first compound 0.3162 µM
  relative viability: 1.14
NCI-H1563; first compound 1 µM
  relative viability: 1
PC-14; first compound 0.01 µM
  relative viability: 0.998
PC-14; first compound 0.03162 µM
  relative viability: 0.934
PC-14; first compound 0.1 µM
  relative viability: 0.952
PC-14; first compound 0.3162 µM
  relative viability: 0.952
PC-14; first compound 1 µM
  relative viability: 0.848
COR-L23; first compound 0.01 µM
  relative viability: 0.891
COR-L23; first compound 0.03162 µM
  relative viability: 0.877
COR-L23; first compound 0.1 µM
  relative viability: 1
COR-L23; first compound 0.3162 µM
  relative viability: 0.923
COR-L23; first compound 1 µM
  relative viability: 0.882
LC-2-ad; first compound 0.01 µM
  relative viability: 0.975
LC-2-ad; first compound 0.1 µM
  relative viability: 0.801
LC-2-ad; first compound 0.3162 µM
  relative viability: 0.714
LC-2-ad; first compound 1 µM
  relative viability: 0.781
SW 1573; first compound 0.01 µM
  relative viability: 0.955
SW 1573; first compound 0.03162 µM
  relative viability: 0.832
SW 1573; first compound 0.1 µM
  relative viability: 0.746
SW 1573; first compound 0.3162 µM
  relative viability: 0.813
SW 1573; first compound 1 µM
  relative viability: 0.653
